Experiments:
Assay in all cases: relative viability (nuclei count vs DMSO), 5 days (fraction); higher = more cells survive
Bleomycin + Vorinostat = compound: CC1=C(N=C(N=C1N)[C@H](CC(=O)N)NC[C@@H](C(=O)N)N)C(=O)N[C@@H]([C@H](C2=CN=CN2)OC3C(C(C(C(O3)CO)O)O)OC4C(C(C(C(O4)CO)O)OC(=O)N)O)C(=O)N[C@H](C)[C@H]([C@H](C)C(=O)N[C@@H]([C@@H](C)O)C(=O)NCCC5=NC(=CS5)C6=NC(=CS6)C(=O)NCCC[S+](C)C)O [Bleomycin] + O=C(CCCCCCC(=O)Nc1ccccc1)NO [Vorinostat] (partner 1 µM); conditions: main component drawn
How it was run: (§1)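 Relative viability equals treated-well nuclei counts divided by vehicle-well nuclei counts. Counts came from 4× images of lung cancer cell lines grown in 1536-well plates for 5 days after pin-tool dosing on the day after seeding. Dosing used one drug alone or a fixed anchor-drug dose plus five library-drug doses (not always all listed) in √10 steps, and values are medians of duplicate plates.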

Etoposide + Vorinostat = compound: COc1cc([C@@H]2c3cc4c(cc3[C@@H](O[C@@H]3O[C@@H]5CO[C@@H](C)O[C@H]5[C@H](O)[C@H]3O)[C@H]3COC(=O)[C@H]23)OCO4)cc(OC)c1O [Etoposide] + O=C(CCCCCCC(=O)Nc1ccccc1)NO [Vorinostat] (partner 1 µM)
How it was run: as §1

Etoposide + Lapatinib = compound: COc1cc([C@@H]2c3cc4c(cc3[C@@H](O[C@@H]3O[C@@H]5CO[C@@H](C)O[C@H]5[C@H](O)[C@H]3O)[C@H]3COC(=O)[C@H]23)OCO4)cc(OC)c1O [Etoposide] + CS(=O)(=O)CCNCc1ccc(-c2ccc3ncnc(Nc4ccc(OCc5cccc(F)c5)c(Cl)c4)c3c2)o1 [Lapatinib] (partner 2 µM)
How it was run: as §1

Bleomycin + Phenformin = compound: CC1=C(N=C(N=C1N)[C@H](CC(=O)N)NC[C@@H](C(=O)N)N)C(=O)N[C@@H]([C@H](C2=CN=CN2)OC3C(C(C(C(O3)CO)O)O)OC4C(C(C(C(O4)CO)O)OC(=O)N)O)C(=O)N[C@H](C)[C@H]([C@H](C)C(=O)N[C@@H]([C@@H](C)O)C(=O)NCCC5=NC(=CS5)C6=NC(=CS6)C(=O)NCCC[S+](C)C)O [Bleomycin] + N=C(N)NC(=N)NCCc1ccccc1 [Phenformin] (partner 250 µM); conditions: main component drawn
How it was run: as §1

Cell Line	relative viability (Bleomycin + Vorinostat; first compound 0.01 µM)	relative viability (Bleomycin + Vorinostat; first compound 0.03162 µM)	relative viability (Bleomycin + Vorinostat; first compound 0.1 µM)	relative viability (Bleomycin + Vorinostat; first compound 0.3162 µM)	relative viability (Bleomycin + Vorinostat; first compound 1 µM)	relative viability (Etoposide + Vorinostat; first compound 0.01 µM)	relative viability (Etoposide + Vorinostat; first compound 0.03162 µM)	relative viability (Etoposide + Vorinostat; first compound 0.1 µM)	relative viability (Etoposide + Vorinostat; first compound 0.3162 µM)	relative viability (Etoposide + Vorinostat; first compound 1 µM)	relative viability (Etoposide + Lapatinib; first compound 0.01 µM)	relative viability (Etoposide + Lapatinib; first compound 0.03162 µM)	relative viability (Etoposide + Lapatinib; first compound 0.1 µM)	relative viability (Etoposide + Lapatinib; first compound 0.3162 µM)	relative viability (Etoposide + Lapatinib; first compound 1 µM)	relative viability (Bleomycin + Phenformin; first compound 0.01 µM)	relative viability (Bleomycin + Phenformin; first compound 0.03162 µM)	relative viability (Bleomycin + Phenformin; first compound 0.1 µM)	relative viability (Bleomycin + Phenformin; first compound 0.3162 µM)	relative viability (Bleomycin + Phenformin; first compound 1 µM)
NCI-H2126	0.785	0.692	0.771	0.442	0.5	0.707	0.911	0.512	0.603	0.227	0.784	0.756	0.52	0.595	0.383	0.55	0.536	0.559	0.349	0.303
NCI-H1792											0.939	0.832	0.883	0.798	0.595	0.316	0.309	0.195	0.197	0.164
ChaGo-K-1	0.512	0.526	0.483	0.303	0.279	0.756	0.736	0.413	0.353	0.197						0.383	0.39	0.384	0.297	0.217
NCI-H522	0.979	0.911	0.739	0.525	0.374	0.934	0.981	0.774	0.841	0.834						0.561	0.585	0.493	0.363	0.416
NCI-H1299											0.952	0.983	1.03	0.776	0.817					
NCI-H1648	0.46	0.324	0.275	0.257	0.271		0.58	0.306	0.3	0.329										
NCI-H2342	0.786	0.735	0.652	0.551	0.491	0.788	0.788	0.471	0.421	0.369						0.552	0.707	0.626	0.441	0.528
SW 900	0.403	0.513	0.427	0.207	0.217	0.413	0.468	0.408	0.295	0.167						0.592	0.447	0.335	0.11	0.16
A549											0.957	0.811	0.537	0.244	0.111	0.143	0.139	0.444	0.0518	0.0392
NCI-H1563											0.935	0.868	0.817	0.646	0.526	0.581	0.658	0.64	0.551	0.511
LCLC-103H	0.678	0.625	0.704	0.654	0.417	0.745	0.94	0.663	0.672	0.575						0.329	0.333	0.294	0.274	0.223
